Consider 8 compounds from US5710135A, “Anthracycline prodrugs, method for preparation as well as their use in selective chemotherapy” (Pharmachemie B.V., priority 1995, dated 1998).

Counter-ions that a name gives are not always drawn. Like-named read-outs stand apart in the source and are kept apart here. A value given as a limit tells only on which side of the number the result lay.

In one series the target is T1, β-glucuronidase (Homo sapiens, UniProt P08236).
T1 sequence (P08236 23-651): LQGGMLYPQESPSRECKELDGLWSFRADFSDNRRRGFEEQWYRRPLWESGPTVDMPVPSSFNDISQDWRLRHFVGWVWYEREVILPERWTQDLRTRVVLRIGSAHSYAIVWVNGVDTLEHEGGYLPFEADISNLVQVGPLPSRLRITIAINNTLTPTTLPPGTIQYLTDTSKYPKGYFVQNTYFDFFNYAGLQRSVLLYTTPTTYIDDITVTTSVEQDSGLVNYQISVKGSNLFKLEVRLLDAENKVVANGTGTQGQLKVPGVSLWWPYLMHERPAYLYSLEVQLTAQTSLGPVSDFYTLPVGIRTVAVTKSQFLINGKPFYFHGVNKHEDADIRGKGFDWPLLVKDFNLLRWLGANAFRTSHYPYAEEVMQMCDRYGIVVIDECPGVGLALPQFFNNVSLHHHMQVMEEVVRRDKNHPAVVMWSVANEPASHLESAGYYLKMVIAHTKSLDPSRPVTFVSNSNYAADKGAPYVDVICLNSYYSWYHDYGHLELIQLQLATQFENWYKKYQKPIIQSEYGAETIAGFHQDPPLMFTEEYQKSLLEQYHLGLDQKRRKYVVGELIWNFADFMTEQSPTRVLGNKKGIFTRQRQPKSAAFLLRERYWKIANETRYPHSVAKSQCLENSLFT
Kind of series: Enzyme hydrolysis half-life with β-glucuronidase. The class given is biochemical. As to conditions: 100 μM prodrug, pH 6.8, 0.03 U/mL β-glucuronidase, 37° C.; read-out: T1/2 (min.) of enzyme hydrolysis. The protocol: (§1) Half-lifes of enzyme hydrolysis were determined by incubating 100 μM prodrug at pH =6.8 with 0.03 U/mL β-glucuronidase or 0.3 U/mL β-glucosidase or β-galactosidase at 37° C.

The next series has as its system OVCAR-3 cells. The experiment in a line: Anti-proliferative effect on OVCAR-3 cells (sulforhodamine B protein dye stain). The format is cell-based. As to conditions: Homo sapiens. The protocol: The anti-proliferative effect of daunorubicin, doxorubicin and idarubicin, and of the prodrugs of examples 1 to 6 on OVCAR-3 cells was determined by measuring cell growth with a protein dye stain (H. J. Haisma et al. Br. J. Cancer 1992, 66, 474-478. Cells were harvested with 0.25 trypsin and 0.2% EDTA in PBS to obtain a single cell suspension and seeded in 96-wells tissue culture plates (2×10^6 cells/mL 10 μL/well, 3 wells per concentration). Drug or prodrug was added (10 μL/well) at different concentrations with a range of 3 or more logs. After incubation for 24 hours, 200 μL of culture medium (supplemented DMEM) was added and the cells were grown for another 72 hours. Cells were fixed with 25% trichloroacetic acid for 1 hour at 4° C. and washed with water. After staining the cells with 0.4% sulforhodamine B in 1% (v/v) acetic acid for 15 min. at room temperature, they were washed with 1% acetic acid and air-dried. The bound dye was solubilized with 10 mM unbuffered Tris and the absorbance was read at 492 nm. The absorbance was linear with cell concentrations from 1,000 to 200,000 cells/well. Separate wells were fixed 24 hours after seeding to substract background staining. The anti-proliferative effects were determined and expressed as IC50 values which are the (pro)drug concentrations that gave 50% growth inhibition when compared to control cell growth.

Series [1] can be described thus: Enzyme hydrolysis half-life with β-glucosidase. The format is biochemical. The settings on record: 100 μM prodrug, pH 6.8, 0.3 U/mL β-glucosidase, 37° C.; read-out: T1/2 (min.) of enzyme hydrolysis. The protocol: as §1
The mark [2] stands for this setting: OVCAR-3 cells, 24 hours incubation with (pro)drug, then grown another 72 hours, read-out: IC50 (μM), (pro)drug concentration giving 50% growth inhibition.
[3] abbreviates: OVCAR-3, read-out: IC50 (μM), (pro)drug concentration giving 50% growth inhibition.

Take `COc1cccc2c1C(=O)c1c(O)c3c(c(O)c1C2=O)C[C@@](O)(C(C)=O)C[C@@H]3O[C@H]1C[C@H](NC(=O)OCc2ccccc2NC(=O)O[C@@H]2O[C@H](C(=O)O)[C@@H](O)[C@H](O)[C@H]2O)[C@H](O)[C@H](C)O1` [1a-ortho, N-[2-(daunorubicin-N-carbonyl-oxymethyl)phenyl] O-β-glucuronyl carbamate sodium salt]: the half-life at 100 µM on β-glucuronidase is 2.08 h. Besides, in the series on OVCAR-3 cells (setting [2]), the IC50 is 20 µM.
Turning to `COc1cccc2c1C(=O)c1c(O)c3c(c(O)c1C2=O)C[C@@](O)(C(=O)CO)C[C@@H]3O[C@H]1C[C@H](NC(=O)OCc2ccc(NC(=O)O[C@@H]3O[C@H](C(=O)O)[C@@H](O)[C@H](O)[C@H]3O)cc2)[C@H](O)[C@H](C)O1` [1b-para, N-[4-(doxorubicin-N-carbonyl-oxymethyl)phenyl] O-β-glucuronyl carbamate sodium salt], on β-glucuronidase, the half-life at 100 µM was found to be 2.83 h. For the same compound, the IC50 in the series with OVCAR-3 cells (setting [2]) is greater than 10 µM.
On to `COc1cccc2c1C(=O)c1c(O)c3c(c(O)c1C2=O)C[C@@](O)(C(C)=O)C[C@@H]3O[C@H]1C[C@H](NC(=O)OCc2ccc(NC(=O)O[C@@H]3O[C@H](C(=O)O)[C@@H](O)[C@H](O)[C@H]3O)cc2)[C@H](O)[C@H](C)O1` [1a-para, N-[4-(daunorubicin-N-carbonyl-oxymethyl)phenyl] O-β-glucuronyl carbamate sodium salt], for which the half-life at 100 µM at β-glucuronidase is 2.25 h. In addition, the IC50 in the series on OVCAR-3 cells (setting [2]) was 22 µM.
`CC(=O)[C@]1(O)Cc2c(O)c3c(c(O)c2[C@@H](O[C@H]2C[C@H](N)[C@H](O)[C@H](C)O2)C1)C(=O)c1ccccc1C3=O` [12c, idarubicin, reference compound]: the IC50 with OVCAR-3 cells (setting [2]) came out at 0.1 µM.
With `COc1cccc2c1C(=O)c1c(O)c3c(c(O)c1C2=O)C[C@@](O)(C(C)=O)C[C@@H]3O[C@H]1C[C@H](NC(=O)OCc2ccc(NC(=O)O[C@@H]3O[C@H](CO)[C@@H](O)[C@H](O)[C@H]3O)cc2)[C@H](O)[C@H](C)O1` [1d-para, N-[4-(daunorubicin-N-carbonyl-oxymethyl)phenyl] O-β-glucosyl carbamate], the half-life at 100 µM in series [1] is greater than 8.33 h. In addition, the IC50 in the series on OVCAR-3 cells (setting [2]) came to 20 µM.
`COc1cccc2c1C(=O)c1c(O)c3c(c(O)c1C2=O)C[C@@](O)(C(C)=O)C[C@@H]3O[C@H]1C[C@H](N)[C@H](O)[C@H](C)O1` [12a, daunorubicin, reference compound]: the IC50 in the series on OVCAR-3 cells (setting [3]) was found to be 1.2 µM.
Take `CC(=O)[C@]1(O)Cc2c(O)c3c(c(O)c2[C@@H](O[C@H]2C[C@H](NC(=O)OCc4ccc(NC(=O)O[C@@H]5O[C@H](C(=O)O)[C@@H](O)[C@H](O)[C@H]5O)cc4)[C@H](O)[C@H](C)O2)C1)C(=O)c1ccccc1C3=O` [1c-para, N-[4-(idarubicin-N-carbonyl-oxymethyl)phenyl] O-β-glucuronyl carbamate sodium salt]: on β-glucuronidase, the half-life at 100 µM was 2 h. The IC50 with OVCAR-3 cells (setting [2]) was greater than 1 µM.
For the compound `COc1cccc2c1C(=O)c1c(O)c3c(c(O)c1C2=O)C[C@@](O)(C(=O)CO)C[C@@H]3O[C@H]1C[C@H](N)[C@H](O)[C@H](C)O1` [12b, doxorubicin, reference compound], in the series on OVCAR-3 cells (setting [3]), the IC50 amounted to 1 µM.
